Data published in the SangsterLogP compilation.
Non-standard residues stand in square brackets, D forms with d. Residues, ends and D or L forms follow the SMILES beside them.

Legend:
[1] = method code SF-RC, from DOI: 10.1002/jlcr.3404, PMID: 27126914; details: pH 7.4
[2] = method code SF-RC, from DOI: 10.1023/a:1015825912542, PMID: 1808606; details: pH 7.2
[3] = method code SF-GR, from DOI: 10.1016/s0022-3565(25)32611-x, PMID: 7230009
[4] = method code SF, from PMID: 21667; details: pH 10.1
[5] = method code G-RC, from DOI: 10.1016/0300-483x(85)90031-9, PMID: 4049435
[6] = method code SF-HPLC, from DOI: 10.1208/s12249-013-0046-y, PMID: 24297599; details: pH 4.0
[7] = not given; remark: listed apart in the source
[8] = method code SF-HPLC, from DOI: 10.1002/jps.2600830510, PMID: 8071813
[9] = not given; remark: listed apart in the source
[10] = from Xu, W.; Sun, J.; Zhang, T.; Ma, B.; Chen, D.; He, Z. (2007). Determination of equilibrium solubility of oridonin and its apparent oil-water partition coefficient by HPLC. Journal of Shenyang …
[11] = method code SF-AS, from DOI: 10.1016/j.ejmech.2015.02.036, PMID: 25728022; details: pH 7.4
[12] = not given; remark: listed apart in the source
[13] = method code SF-HPLC, from DOI: 10.1021/jf0483669, PMID: 15913295; details: pH 7.4
[14] = method code pH-metric titration, from DOI: 10.1002/(sici)1096-9063(199607)47:3<265::aid-ps416>3.0.co;2-f
[15] = method code SF-AS, from DOI: 10.1016/j.bmcl.2014.05.029, PMID: 24930836
[16] = method code SF, from DOI: 10.1016/s0378-5173(97)00352-9
[17] = method code SF-RC, from DOI: 10.1021/jm300199g, PMID: 22540974; details: pH 7.4
[18] = not given; remark: listed apart in the source
[19] = method code SF-HPLC, from DOI: 10.1023/a:1007546905874, PMID: 11205732; details: pH 7.4
[20] = method code SF-HPLC, from PMID: 4074422; details: pH 7.0

SMILES: Cn1cc(C2=C(c3coc4ccccc34)C(=O)NC2=O)c2cc(I)ccc21
- logD [1]: 3.18

SMILES: c1ccc2c3c(ccc2c1)-c1cccc2cccc-3c12
- logP: 6.04

SMILES: CC(=O)N[C@H](Cc1ccccc1)C(=O)N[C@H](Cc1ccccc1)C(N)=O (Ac-[dF]-[dF]-NH2)
- logD [2]: 1.19

SMILES: CC1C2CCC3C(O)C2(CC(O)C2(O)C1CC(O)C2(C)C)CC3(C)O (stereo unspecified)
- logP [3]: 1.51

SMILES: COc1ccccc1N1CCN(CCCNc2cc(=O)n(C)c(=O)n2C)CC1
- logD [4]: 1.6

SMILES: c1ccc2c(c1)ccc1[nH]c3ccc4ccccc4c3c12
- logP [5]: 5.55

SMILES: CC[C@@]1(O)C(=O)OCc2c1cc1n(c2=O)Cc2cc3c(N)cccc3nc2-1
- logD [6]: 1.26

SMILES: CCCN(C(C)C)C1COc2cccc(C(=O)NC(C)C)c2C1 (stereo unspecified)
- logP [7]: 3.27

SMILES: O=C(OCCCN1CCOCC1)c1ccccc1Nc1c(Cl)cccc1Cl
- logP [8]: 2.81

SMILES: CC(=O)C1=C(O)C2C3c4c[nH]c5cccc(c45)CC3C(C)(C)N2C1=O (stereo unspecified)
- logP [9]: 3.83

SMILES: C=C1C(=O)[C@]23C(O)C1CC[C@H]2[C@@]12CO[C@]3(O)C(O)[C@@H]1C(C)(C)CCC2O (stereo partly specified)
- logP [10]: 1.66

SMILES: C=CCn1c(C)nc2cc(Nc3nc(N4CCOCC4)nc4[nH]cnc34)ccc21
- logD [11]: 1.59

SMILES: c1ccc2c(c1)-c1cccc3c1c-2cc1ccccc13
- logP [12]: 6.06

SMILES: O=c1c(-c2ccc(O)cc2)coc2cc(O[C@@H]3O[C@H](CO)[C@@H](O)[C@H](O)[C@H]3O)cc(O)c12
- logD [13]: 0.97

SMILES: CCO/N=C(\CC)C1=C(O)CC(c2c(C)cc(C)cc2C)CC1=O (stereo unspecified)
- logP [14]: 4.46

SMILES: Cc1cc(=O)oc2cc(OCC(O)Cn3cncn3)cc(OCC(O)Cn3cncn3)c12 (stereo unspecified)
- logP [15]: 0.65

SMILES: C/C(=C(/OCCOc1ccc(Cl)cc1)c1ccc(Cl)cc1Cl)n1ccnc1
- logP [16]: 5.76

SMILES: CC(C)[C@H](C(=O)NO)N(Cc1ccccc1)S(=O)(=O)c1ccc(OCCF)cc1
- logD [17]: 2.02

SMILES: CCCCCCN1C(=O)NC(c2ccccc2)(c2ccccc2)C1=O
- logP [18]: 4.39

SMILES: O=C1OC(c2ccc(O)cc2)(c2ccc(O)cc2)c2ccccc21
- logD [19]: 3.36

SMILES: O=C1CCc2cc(OCCCCc3nnnn3C3CCCCC3)ccc2N1
- logD [20]: 2.76
